Results on 18 compounds are retold here after ChEMBL document CHEMBL3822357, “New Atglistatin closely related analogues: Synthesis and structure-activity relationship towards adipose triglyceride lipase inhibition” (Eur J Med Chem, 2016).

The target in experiment [1] is T1, Patatin-like phospholipase domain-containing protein 2 (Mus musculus) (UniProt Q8BJ56).
T1 sequence (whole entry): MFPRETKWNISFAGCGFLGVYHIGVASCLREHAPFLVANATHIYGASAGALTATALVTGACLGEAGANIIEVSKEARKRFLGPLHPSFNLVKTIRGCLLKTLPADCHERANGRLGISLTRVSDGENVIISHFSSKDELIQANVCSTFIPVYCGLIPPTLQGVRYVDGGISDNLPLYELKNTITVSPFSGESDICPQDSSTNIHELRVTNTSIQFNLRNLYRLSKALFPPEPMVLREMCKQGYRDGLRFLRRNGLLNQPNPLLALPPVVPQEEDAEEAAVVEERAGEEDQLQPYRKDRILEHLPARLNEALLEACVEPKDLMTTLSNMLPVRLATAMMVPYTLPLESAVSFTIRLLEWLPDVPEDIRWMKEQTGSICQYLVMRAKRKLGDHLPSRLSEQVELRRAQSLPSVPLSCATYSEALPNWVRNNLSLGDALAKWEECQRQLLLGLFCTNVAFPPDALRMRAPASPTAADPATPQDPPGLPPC
The experiment is described as follows: Inhibition of ATGL in mouse 3T3L1 cells assessed as inhibition of isoproterenol-stimulated lipolysis by measuring reduction in glycerol release in media at 20 uM preincubated for 4 hrs followed by isoproterenol addition measured after 1 hr by colorimetric assay. The experiment is classed as cell-based. To be noted: 3T3-L1.

Experiment [2] deals with T1, Patatin-like phospholipase domain-containing protein 2 (Mus musculus). The experiment is described as follows: Inhibition of ATGL in mouse 3T3L1 cells assessed as inhibition of isoproterenol-stimulated lipolysis by measuring reduction in non-esterified fatty acid release in media at 20 uM preincubated for 4 hrs followed by isoproterenol addition measured after 1 hr by colorimetric assay. The experiment is classed as cell-based. The note with it: 3T3-L1.

The target in experiment [3] is T2, Patatin-like phospholipase domain-containing protein 2 (Homo sapiens, UniProt Q96AD5).
T2 sequence (Q96AD5 whole entry): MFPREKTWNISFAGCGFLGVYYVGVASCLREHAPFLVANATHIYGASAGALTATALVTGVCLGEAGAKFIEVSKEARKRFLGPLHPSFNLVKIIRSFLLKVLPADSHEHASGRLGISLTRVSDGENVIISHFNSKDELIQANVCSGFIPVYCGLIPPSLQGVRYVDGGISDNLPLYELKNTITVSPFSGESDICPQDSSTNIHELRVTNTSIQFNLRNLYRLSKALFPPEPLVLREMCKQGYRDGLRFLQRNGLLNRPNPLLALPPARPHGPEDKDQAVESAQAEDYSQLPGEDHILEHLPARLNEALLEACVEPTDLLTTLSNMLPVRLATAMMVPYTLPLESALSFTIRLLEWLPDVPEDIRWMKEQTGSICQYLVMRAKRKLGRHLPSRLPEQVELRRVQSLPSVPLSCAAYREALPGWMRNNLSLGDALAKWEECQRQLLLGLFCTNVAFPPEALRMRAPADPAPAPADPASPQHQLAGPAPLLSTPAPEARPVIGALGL
The experiment is described as follows: Inhibition of ATGL (unknown origin) overexpressed in Escherichia coli XL-1 cells using [9,10-3H(N)]triolein as substrate incubated for 60 mins by liquid scintillation counting method.

Calls of active or inactive are those of the source. No cut-off for these calls is given here.

Broadly, the IC50 is the point on the concentration scale where inhibition reaches its midpoint.

Take `CN(C)C(=O)Nc1ccc(-c2ccccc2)cc1`: the inhibition result in experiment [1] was “inactive”.

On to `CN(C)C(=O)Nc1cccc(-c2ccc(N(C)C)cc2)c1`, for which the inhibition result in experiment [2] is “Active”. The midpoint of inhibition in experiment [3], the IC50, lay at 700 nM.

`CN(C)c1ccc(N(C)C)cc1`: the inhibition result in experiment [2] and in experiment [1] was “inactive” each time.

Regarding `CN(C)C(=O)Nc1ccc(-c2ccc(NC(=O)N(C)C)cc2)cc1`, the inhibition result in experiment [2] and in experiment [1] was “inactive” each time.

In the case of `CN(C)C(=O)Nc1ccc(N(C)C)cc1`, the inhibition entry in experiment [1] is “inactive”.

For the compound `CN(C)C(=O)Nc1cccc(-c2cccc(NC(=O)N(C)C)c2)c1`, the inhibition result in experiment [2] and in experiment [1] was “inactive” throughout.

Turning to `CN(C)C(=O)Nc1ccc(NC(=O)N(C)C)cc1`, the inhibition result in experiment [2] and in experiment [1] was “inactive” throughout.

Take `CN(C)C(=O)Nc1ccc(-c2ccc(N)cc2)cc1`: in experiment [1], the inhibition entry is “inactive”.

Consider `CN(C)c1cccc(-c2cccc(N(C)C)c2)c1`, for which the inhibition entry in experiment [2] and in experiment [1] was “inactive” each time.

Turning to `CN(C)c1ccc(-c2ccc(N(C)C)cc2)cc1`, the inhibition entry in experiment [2] and in experiment [1] was “inactive” in each case.

As for `CN(C)C(=O)Nc1cccc(-c2ccccc2)c1`, the inhibition result in experiment [2] and in experiment [1] was “Active” throughout.

On to `CN(C)c1ccc(-c2ccccc2)cc1`, for which the inhibition result in experiment [2] and in experiment [1] was “inactive” in each case.

As to `CN(C)c1cccc(-c2ccccc2)c1`, the inhibition result in experiment [2] and in experiment [1] was “inactive” in each case.

On to `CN(C)C(=O)Nc1ccc(-c2ccc(N(C)C)cc2)cc1`, for which the inhibition entry in experiment [2] and in experiment [1] was “inactive” throughout.

`CN(C)C(=O)Nc1cccc(-c2cccc(N(C)C)c2)c1`: the inhibition entry in experiment [2] and in experiment [1] was “inactive” in each case.

For the compound `CN(C)c1cccc(N(C)C)c1`, the inhibition entry in experiment [2] and in experiment [1] was “inactive” in each case.

Turning to `CN(C)C(=O)Nc1cccc(N(C)C)c1`, the inhibition result in experiment [2] and in experiment [1] was “inactive” throughout.

As to `CN(C)C(=O)Nc1ccc(-c2cccc(N(C)C)c2)cc1`, the inhibition result in experiment [2] and in experiment [1] was “inactive” each time.
